Broadly, the EC50 is the concentration needed to bring the measured effect to its halfway point. Broadly, the AC50 is the midpoint of the concentration-response curve, whichever way the signal moves.

Calls of active or inactive are those of the source. Some results are limits rather than exact numbers.

Two molecules from ChEMBL document CHEMBL1201862, “PubChem BioAssay data set” (2004) can be followed below.

For assay [1], the target named is DNA dC->dU-editing enzyme APOBEC-3G (Homo sapiens, UniProt Q9HC16). The assay can be described thus: Dose Response confirmation of small molecule APOBEC3G DNA Deaminase Inhibitors via a fluorescence-based single-stranded DNA deaminase assay. [Related pubchem assays (depositor defined):AID493012, AID493028]. Type of assay: functional.
The target of assay [2] is Eukaryotic translation initiation factor 4E (Mus musculus, UniProt P63073). The assay is described as follows: eIF4E–eIF4G protein interaction inhibitors, dose response, biochemical, TR-FRET (AID 855).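 Note: potency for disrupting eIF4E binding to eIF4GI seen as loss of FRET.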 Type of assay: functional. (TR-FRET usually uses a lanthanide donor and a delayed reading to cut background.)
Assay [3] concerns the target T1, Polyadenylate-binding protein 1 (Homo sapiens, UniProt P11940). The assay is described as follows: PABP1 MLLE–PAM2 interaction inhibitors, dose response, miRNA deadenylation inhibitor project, biochemical, fluorescence polarization, Cy5-PAM2 peptide, secondary (AID 602260). It counts as functional. The settings on record: read-out: IC50_Mean. Background: Polarisation of emitted light reports the rotation of a fluorescent probe.

For the next assay, the target named is T2, Hexokinase-1 (Homo sapiens, UniProt P19367).
T2 sequence (P19367 whole entry): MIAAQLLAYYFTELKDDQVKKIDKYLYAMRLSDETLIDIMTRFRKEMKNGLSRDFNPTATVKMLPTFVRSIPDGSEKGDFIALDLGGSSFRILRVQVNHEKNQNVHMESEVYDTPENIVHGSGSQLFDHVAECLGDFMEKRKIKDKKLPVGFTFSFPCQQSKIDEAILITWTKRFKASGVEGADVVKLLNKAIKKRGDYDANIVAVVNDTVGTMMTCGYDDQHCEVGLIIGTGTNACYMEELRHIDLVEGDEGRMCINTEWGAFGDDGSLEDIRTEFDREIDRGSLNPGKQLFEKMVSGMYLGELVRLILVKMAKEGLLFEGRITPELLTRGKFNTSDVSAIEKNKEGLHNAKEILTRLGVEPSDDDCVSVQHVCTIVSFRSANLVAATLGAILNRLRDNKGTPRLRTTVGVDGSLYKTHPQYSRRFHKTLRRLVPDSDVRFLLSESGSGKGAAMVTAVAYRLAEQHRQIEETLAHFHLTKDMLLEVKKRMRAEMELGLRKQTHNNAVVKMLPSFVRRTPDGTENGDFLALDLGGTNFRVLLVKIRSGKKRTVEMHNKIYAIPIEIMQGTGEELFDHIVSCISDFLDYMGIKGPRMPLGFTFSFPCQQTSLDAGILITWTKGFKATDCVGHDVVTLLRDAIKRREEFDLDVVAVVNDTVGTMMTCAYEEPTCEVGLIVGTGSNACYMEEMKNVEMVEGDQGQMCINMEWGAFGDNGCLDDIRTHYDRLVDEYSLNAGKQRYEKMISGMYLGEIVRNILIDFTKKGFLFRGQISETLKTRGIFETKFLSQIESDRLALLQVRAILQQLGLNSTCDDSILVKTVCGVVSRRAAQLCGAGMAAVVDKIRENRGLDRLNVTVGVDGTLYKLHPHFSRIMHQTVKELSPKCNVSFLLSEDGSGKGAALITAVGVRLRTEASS
The assay is described as follows: hexokinase 1 activators, dose response, selectivity assay for HKDC1 activator project, biochemical (AID 504762). It counts as functional.

In the next assay the target is T3, Hexokinase HKDC1 (Homo sapiens, UniProt Q2TB90).
T3 sequence (Q2TB90 whole entry): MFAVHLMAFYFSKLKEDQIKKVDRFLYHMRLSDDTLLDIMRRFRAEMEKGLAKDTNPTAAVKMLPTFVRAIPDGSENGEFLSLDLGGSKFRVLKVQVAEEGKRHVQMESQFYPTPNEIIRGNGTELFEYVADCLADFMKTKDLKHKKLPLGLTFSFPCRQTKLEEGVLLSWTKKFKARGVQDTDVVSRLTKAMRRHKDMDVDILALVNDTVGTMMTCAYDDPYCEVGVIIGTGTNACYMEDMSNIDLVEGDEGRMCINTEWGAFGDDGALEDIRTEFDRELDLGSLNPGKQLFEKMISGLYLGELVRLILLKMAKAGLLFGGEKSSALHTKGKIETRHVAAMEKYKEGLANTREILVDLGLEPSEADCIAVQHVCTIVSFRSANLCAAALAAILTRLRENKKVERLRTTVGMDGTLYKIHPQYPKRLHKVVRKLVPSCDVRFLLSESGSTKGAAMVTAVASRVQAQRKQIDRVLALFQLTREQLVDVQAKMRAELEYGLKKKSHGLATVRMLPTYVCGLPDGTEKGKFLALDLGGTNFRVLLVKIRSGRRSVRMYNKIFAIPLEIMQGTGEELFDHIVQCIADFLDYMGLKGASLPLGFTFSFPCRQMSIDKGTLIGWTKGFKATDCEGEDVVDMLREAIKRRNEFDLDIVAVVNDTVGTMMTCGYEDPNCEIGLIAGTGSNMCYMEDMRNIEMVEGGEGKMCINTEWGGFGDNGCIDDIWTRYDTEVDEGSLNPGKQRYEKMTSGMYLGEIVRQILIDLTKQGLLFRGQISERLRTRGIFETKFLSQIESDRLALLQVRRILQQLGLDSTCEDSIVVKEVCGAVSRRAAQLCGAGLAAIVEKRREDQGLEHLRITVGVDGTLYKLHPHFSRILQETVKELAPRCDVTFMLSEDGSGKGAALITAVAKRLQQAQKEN
The assay is described as follows: HKDC1 hexokinase activators, dose response, biochemical, W721R variant (AID 504730). Type of assay: functional.

Assay [4] addresses T1, Polyadenylate-binding protein 1. The assay is described as follows: PABP1 MLLE–PAM2 binding inhibitor potency, dose response, biochemical, fluorescence polarization, FITC-PAM2 peptide (AID 602259). The settings on record: read-out: IC50_Mean. Type of assay: functional.
The target in assay [5] is T4, Runt-related transcription factor 1/Core-binding factor subunit beta (Homo sapiens, UniProt Q01196+Q13951). The assay is described as follows: inhibitors of RUNX1 Runt–CBFb-SMMHC binding, biochemical, TR-FRET (AID 1438). It counts as protein assay.
Assay [6] addresses T5, DNA repair and recombination protein RAD54-like (Homo sapiens, UniProt Q92698).
T5 sequence (Q92698 whole entry): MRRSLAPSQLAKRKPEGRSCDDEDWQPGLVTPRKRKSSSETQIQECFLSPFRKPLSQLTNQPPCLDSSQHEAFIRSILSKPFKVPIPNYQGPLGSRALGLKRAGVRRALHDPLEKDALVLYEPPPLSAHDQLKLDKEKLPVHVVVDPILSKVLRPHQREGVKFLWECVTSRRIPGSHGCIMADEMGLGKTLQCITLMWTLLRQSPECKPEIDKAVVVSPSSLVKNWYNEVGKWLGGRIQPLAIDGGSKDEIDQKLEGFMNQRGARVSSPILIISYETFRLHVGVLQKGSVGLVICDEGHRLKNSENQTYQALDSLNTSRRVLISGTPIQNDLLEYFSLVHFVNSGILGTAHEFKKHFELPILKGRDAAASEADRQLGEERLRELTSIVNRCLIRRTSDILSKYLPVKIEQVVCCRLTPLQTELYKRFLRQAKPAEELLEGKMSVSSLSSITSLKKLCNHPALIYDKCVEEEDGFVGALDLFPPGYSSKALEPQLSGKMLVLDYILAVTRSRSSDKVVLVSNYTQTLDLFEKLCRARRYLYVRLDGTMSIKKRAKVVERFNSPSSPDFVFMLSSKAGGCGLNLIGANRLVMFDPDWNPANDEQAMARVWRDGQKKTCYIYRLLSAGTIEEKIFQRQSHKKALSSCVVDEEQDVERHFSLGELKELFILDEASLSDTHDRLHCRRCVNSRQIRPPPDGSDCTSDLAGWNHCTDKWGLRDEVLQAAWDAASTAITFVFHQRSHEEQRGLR
The assay is described as follows: inhibitors of human RAD54 branch migration, confirmation, biochemical, fluorescence, cherry-picked samples, dose series (AID 651657). It counts as functional.

Assay [7] deals with T4, Runt-related transcription factor 1/Core-binding factor subunit beta. The assay is described as follows: inhibitors of RUNX1 Runt–CBFb-SMMHC binding, primary screen, biochemical, FRET, Cerulean-Runt, Venus-CBFb-SMMHC, uHTS (AID 1434).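 Note: partner is the CBFb-SMMHC leukemia fusion protein rather than wild-type CBFb.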 It counts as protein assay.
Assay [8] addresses T6, Aryl hydrocarbon receptor (Homo sapiens, UniProt P35869).
T6 sequence (P35869 whole entry): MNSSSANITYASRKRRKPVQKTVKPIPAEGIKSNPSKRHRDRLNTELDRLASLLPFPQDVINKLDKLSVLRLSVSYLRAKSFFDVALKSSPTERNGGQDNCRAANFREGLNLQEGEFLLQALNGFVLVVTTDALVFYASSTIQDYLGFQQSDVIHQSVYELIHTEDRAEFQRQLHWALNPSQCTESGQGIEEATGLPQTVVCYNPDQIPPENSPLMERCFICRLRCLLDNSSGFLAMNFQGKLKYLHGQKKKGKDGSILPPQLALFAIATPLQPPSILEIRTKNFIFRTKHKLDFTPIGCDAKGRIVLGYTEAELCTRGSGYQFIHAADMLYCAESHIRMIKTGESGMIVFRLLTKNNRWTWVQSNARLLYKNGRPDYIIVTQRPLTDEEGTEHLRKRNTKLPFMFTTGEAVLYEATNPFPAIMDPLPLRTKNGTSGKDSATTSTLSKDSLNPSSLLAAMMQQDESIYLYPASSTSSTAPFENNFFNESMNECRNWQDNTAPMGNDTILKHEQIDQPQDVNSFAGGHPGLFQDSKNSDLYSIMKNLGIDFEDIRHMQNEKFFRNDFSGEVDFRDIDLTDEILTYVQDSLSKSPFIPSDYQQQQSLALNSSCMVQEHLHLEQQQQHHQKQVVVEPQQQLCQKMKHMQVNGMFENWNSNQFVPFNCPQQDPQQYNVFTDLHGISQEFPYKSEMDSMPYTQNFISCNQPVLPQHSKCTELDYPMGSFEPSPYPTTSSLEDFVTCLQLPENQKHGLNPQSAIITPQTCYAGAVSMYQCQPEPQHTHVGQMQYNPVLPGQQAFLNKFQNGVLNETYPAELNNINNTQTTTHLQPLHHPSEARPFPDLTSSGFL
The assay is described as follows: Luminescence-based cell-based high throughput dose response assay for activators of the Aryl Hydrocarbon Receptor (AHR). [Related pubchem assays: 2796 (Primary screen (AHR activators in singlicate)), 2845 (Confirmation screen (AHR activators in triplicate)), 434939 (Counterscreen (PXR activators in triplicate)), 2804 (Summary (AHR activators))]. Type of assay: ADME.

In another assay the target is Troponin, cardiac muscle (Homo sapiens, UniProt P19429+P45379+P63316). The assay is described as follows: Fluorescence-based biochemical high throughput dose response assay for activators of the calcium sensitivity of cardiac Regulated Thin Filaments (RTF). [Related pubchem assays (depositor defined):AID493008, AID493018, AID504382, AID504383]. It counts as protein-complex assay.

`CCOC(=O)c1c(NC(=O)CSc2nnnn2-c2ccc(OC)cc2)sc(C)c1C`: the IC50 in assay [1] was 54.7 µM (active); in assay [2], > 64 µM (inactive); in assay [3] it was > 66 µM (inactive); in assay [4], > 66 µM (inactive). The EC50 at Hexokinase-1 is 37.4 µM (inactive); on Hexokinase HKDC1 it was > 80 µM (inactive).
In the case of `CC(=O)Nc1ccc2cc3ccc(NC(C)=O)cc3nc2c1`, the IC50 in [5] was > 100 µM (inactive); in assay [7] it was 14.1 µM (active). For the same molecule, the AC50 in assay [6] is 86.2 µM (active). The EC50 in [8] is > 3.39 µM (active); on Troponin, cardiac muscle it was 38.3 µM (inactive).
